Measurements from patent US20250268894A1, “MACROCYCLE COMPOUNDS FOR THE TREATMENT OF CANCER” (Hoffmann-La Roche Inc., priority 2022, published 2025).

Columns and labels:
[1] = test system: phosphorylation of ERK, KRAS G12C in NCI-H358 cells; experiment: pERK inhibition assay, KRAS G12C in NCI-H358 cells; assay type: cell-based, human; settings: NCI-H358, 4 hours
Method: (§1) This assay is to measure the ability of test compounds in inhibiting the phosphorylation of ERK, the downstream signaling of KRAS G12C in NCI-H358 cells, KRAS G12D in AGS cells, and KRAS G12V in SW620. NCI-H358 (ATCC-CRL5807) cells, AGS (ATCC-CRL-1739) cells, SW620 (ATCC-CCL-227) cells were all grown and maintained using RPMI-1640 medium (Thermo Fisher Scientific) with 10% fetal bovine serum and 1% penicillin/streptomycin. On the day prior to compound addition, cells were plated in tissue culture-treated 96 well plates (Corning-3699) at a density of 30,000 cell/well, 20,000 cell/well, 30,000 cell/well for NCI-H358, AGS and SW620 respectively, and allowed for attachment overnight. Diluted compounds were then added in a final concentration of 0.5% DMSO. After 4 hours of incubation, the medium was removed, 100 μL of 4% formaldehyde was added, and the assay plates were incubated at room temperature for 20 minutes. The plates were then washed once with phosphate buffered saline (PBS), and permeabilized with 100 μL of chilled methanol for 10 minutes. Non-specific antibody binding to the plates was blocked using 50 μL 1X BSA blocking buffer (Thermo-37520, 10-fold dilution by Phosphate-Buffered Saline Tween (PBST) for at least 1 hour at room temperature.
(§2) The amount of phosphor-ERK was determined using an antibody specific for phosphorylated form of ERK. Primary antibody (PERK, CST-4370, Cell Signaling Technology) was diluted 1:300 in blocking buffer, with 50 μL aliquoted to each well, and incubated overnight at 4° C. Cells was washed five times for 5 minutes with PBST. Secondary antibody (HRP-linked anti-rabbit IgG, CST-7074, Cell Signaling Technology) was diluted 1:1000 in blocking buffer, and 50 μL was added to each well and incubated 1-2 hrs at room temperature. Cells was washed […] for 5 minutes with PBST, 100 μL TMB ELISA substrate (abcam-ab171523) were added and gently shake for 20 minutes. 50 μL stop solution (abcam-ab171529) were added, and then read the signal (OD450) by EnVision.
(§3) IC50 was determined by fitting a 4-parameter sigmoidal concentration response model.

[2] = test system: NCI-H358 cells (KRAS G12C); experiment: Cell viability assay (Cell Counting Kit-8), KRAS G12C; assay type: cell-based; settings: Homo sapiens, NCI-H358, 72 hrs
Method: (§4) The purpose of this cellular assay was to determine the effects of test compounds on the proliferation of human cancer cell lines NCI-H358 (ATCC-CRL5807) cells, AGS (ATCC-CRL-1739) cells, SW620 (ATCC-CCL-227) over a 3-day treatment period by quantifying the amount of NADPH present at endpoint using Cell Counting Kit-8.
(§5) Cells were seeded at 5,000 cells/well (NCI-H358), 2,000 cells/well (AGS)2,000 cells/well (SW620) in 96-well assay plates (Corning-3699) and incubated overnight. On the day of the assay, diluted compounds were then added in a final concentration of 0.5% DMSO. After 72 hrs incubation, a tenth of the volume of cell counting kit 8 (Dnjindo-CK04) was added into each well. Read the signal (OD450 minus OD650) using EnVision after 2 hrs incubation. IC50 was determined by fitting a 4-parameter sigmoidal concentration response model.

[3] = test system: phosphorylation of ERK, KRAS G12D in AGS cells; experiment: pERK inhibition assay, KRAS G12D in AGS cells; assay type: cell-based, human; settings: 4 hours
Method: as §1, §2, §3

SW620 cells (KRAS G12V) = experiment: Cell viability assay (Cell Counting Kit-8), KRAS G12V; assay type: cell-based; settings: Homo sapiens, SW-620, SW620, 72 hrs
Method: as §4, §5

AGS cells (KRAS G12D) = experiment: Cell viability assay (Cell Counting Kit-8), KRAS G12D; assay type: cell-based; settings: Homo sapiens, 72 hrs
Method: as §4, §5

[4] = test system: phosphorylation of ERK, KRAS G12V in SW620 cells; experiment: pERK inhibition assay, KRAS G12V in SW620; assay type: cell-based, human
Method: as §1, §2, §3

KRAS G12C-BRAF complex = KRAS G12C-BRAF complex (Homo sapiens (Human), UniProt P01116+P62937, G12C); experiment: KRAS-BRAF with CYPA (500 nM) interaction assay (TR-FRET), G12C; assay type: biochemical
Method: (§6) Kras-BRAF with CYPA (500 nM) Interaction Assay In this example, TR-FRET was also used to measure the compound or compound-CYPA dependent disruption of the KRAS G12C-BRAF complex. This protocol was also used to measure disruption of KRAS G12D or KRAS G12V binding to BRAF by a compound of the invention, respectively. […] Compound was present in plate wells as a 16-point 3-fold dilution series starting at a final concentration of 10 μM and incubated for 3 hours. […] TR-FRET signal was read on a […] microplate reader (Ex320 nm, Em 665/615 nm). Compounds that facilitate disruption of the KRAS-BRAF complex were identified as those eliciting a decrease in the TR-FRET ratio relative to DMSO control wells.

KRAS G12D-BRAF complex = KRAS G12D-BRAF complex (Homo sapiens (Human), UniProt P01116+P62937, G12D); experiment: KRAS-BRAF with CYPA (500 nM) interaction assay (TR-FRET), G12D; assay type: biochemical
Method: as §6

KRAS G12V-BRAF complex = KRAS G12V-BRAF complex (Homo sapiens (Human), UniProt P01116+P62937, G12V); experiment: KRAS-BRAF with CYPA (500 nM) interaction assay (TR-FRET), G12V; assay type: biochemical
Method: as §6

[5] = Homo sapiens, SW-620, SW620, 4 hours

Sequence of KRAS G12D-BRAF complex (P01116-2 other isoform, or with tags, fused parts or gaps G12D): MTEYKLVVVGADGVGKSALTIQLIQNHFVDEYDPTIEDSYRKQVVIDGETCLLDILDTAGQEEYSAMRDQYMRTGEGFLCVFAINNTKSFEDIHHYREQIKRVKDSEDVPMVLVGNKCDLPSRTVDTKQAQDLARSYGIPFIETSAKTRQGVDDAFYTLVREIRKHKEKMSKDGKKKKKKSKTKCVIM
Sequence of KRAS G12D-BRAF complex (P62937 whole entry): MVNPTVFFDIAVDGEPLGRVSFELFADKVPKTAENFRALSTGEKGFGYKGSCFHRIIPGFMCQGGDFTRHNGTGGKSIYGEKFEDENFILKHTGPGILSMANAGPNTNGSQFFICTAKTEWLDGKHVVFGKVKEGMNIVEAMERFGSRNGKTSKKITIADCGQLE
Sequence of KRAS G12C-BRAF complex (P01116-2 other isoform, or with tags, fused parts or gaps G12C): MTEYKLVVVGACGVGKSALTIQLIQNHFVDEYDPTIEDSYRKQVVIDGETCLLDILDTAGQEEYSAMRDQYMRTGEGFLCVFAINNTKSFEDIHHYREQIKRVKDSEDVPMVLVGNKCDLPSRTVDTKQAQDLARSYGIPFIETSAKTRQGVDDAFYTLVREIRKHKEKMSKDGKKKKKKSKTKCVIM
Sequence of KRAS G12C-BRAF complex (P62937 whole entry): as the sequence (P62937 whole entry) above
Sequence of KRAS G12V-BRAF complex (P01116-2 other isoform, or with tags, fused parts or gaps G12V): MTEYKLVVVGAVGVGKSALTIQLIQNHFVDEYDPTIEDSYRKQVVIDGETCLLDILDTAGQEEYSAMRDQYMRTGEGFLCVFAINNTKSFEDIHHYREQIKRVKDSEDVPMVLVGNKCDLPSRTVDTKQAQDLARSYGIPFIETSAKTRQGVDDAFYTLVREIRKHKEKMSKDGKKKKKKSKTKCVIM
Sequence of KRAS G12V-BRAF complex (P62937 whole entry): as the sequence (P62937 whole entry) above

Row | Structure (SMILES) | IC50 ([1]; Homo sapiens) | IC50 [2] | IC50 ([3]; Homo sapiens) | IC50 (SW620 cells (KRAS G12V)) | IC50 (AGS cells (KRAS G12D)) | IC50 [4, 5] | IC50 [1] | IC50 [3] | IC50 ([4]; SW620, 4 hours) | IC50 (KRAS G12C-BRAF complex) | IC50 (KRAS G12D-BRAF complex) | IC50 (KRAS G12V-BRAF complex)
1 | CO[C@@H](C)c1ncc(N2CCOCC2)cc1-c1c2c3cc(c(F)cc3n1CC(F)(F)F)-c1csc(n1)C[C@H](NC(=O)[C@H](C(C)C)N(C)C(=O)N1CC(N(C)C)C1)C(=O)N1CCC[C@H](N1)C(=O)OCC(C)(C)C2 (atropisomer, axis not shown; (M)) [Example 4, 3-(dimethylamino)-N-[(1S)-1-[[(7S,13S)-24-fluoro-(20M)-20-[2-[(1S)-1-methoxyethyl]-5-morpholino-3-pyridyl]-17,17-dimethyl-8,14-dioxo-21-(2,2,2-trifluoroethyl)-15-oxa-4-thia-9,21,27,28-tetrazapentacyclo[17.5.2.1^2,5.1^9,13.0^22,26]octacosa-1 (25),2,5 (28),19,22 (26),23-hexaen-7-yl]carbamoyl]-2-methyl-propyl]-N-methyl-azetidine-1-carboxamide] | 1 nM | 3 nM | 3 nM | 1 nM | 17 nM | 1 nM | – | – | – | – | – | –
2 | CO[C@@H](C)c1ncc(N2CCN(C)CC2)cc1-c1c2c3cc(ccc3n1CC(F)(F)F)-c1csc(n1)C[C@H](NC(=O)[C@H](C(C)C)N(C)C(=O)N1CCOCC1)C(=O)N1CCC[C@H](N1)C(=O)OCC(C)(C)C2 (atropisomer, axis not shown; (M)) [Example 3, N-[(1S)-1-[[(7S,13S)-24-fluoro-(20M)-20-[2-[(1S)-1-methoxyethyl]-5-(4-methylpiperazin-1-yl)-3-pyridyl]-17,17-dimethyl-8,14-dioxo-21-(2,2,2-trifluoroethyl)-15-oxa-4-thia-9,21,27,28-tetrazapentacyclo[17.5.2.1^2,5.1^9,13.0^22,26]octacosa-1 (25),2,5 (28),19,22 (26),23-hexaen-7-yl]carbamoyl]-2-methyl-propyl]-N-methyl-morpholine-4-carboxamide] | 1 nM | 1 nM | 1 nM | 1 nM | 15 nM | 1 nM | – | – | – | – | – | –
3 | CCn1c(-c2cc(N3CCOCC3)cnc2[C@H](C)OC)c2c3cc(c(F)cc31)-c1csc(n1)C[C@H](NC(=O)[C@H](C(C)C)N1CCN(C)C1=O)C(=O)N1CCC[C@H](N1)C(=O)OCC(C)(C)C2 (atropisomer, axis not shown; (M)) [Example 8, (2S)-N-[(7S,13S)-21-ethyl-24-fluoro-(20M)-20-[2-[(1S)-1-methoxyethyl]-5-morpholino-3-pyridyl]-17,17-dimethyl-8,14-dioxo-15-oxa-4-thia-9,21,27,28-tetrazapentacyclo[17.5.2.1^2,5.1^9,13.0^22,26]octacosa-1 (25),2,5 (28),19,22 (26),23-hexaen-7-yl]-3-methyl-2-(3-methyl-2-oxo-imidazolidin-1-yl) butanamide] | 24 nM | 12 nM | 24 nM | 7 nM | 57 nM | 5 nM | – | – | – | – | – | –
4 | COC(C)c1ncc(N2CCN(CC(F)(F)F)CC2)cc1-c1c2c3cc(c(F)cc3n1CC(F)(F)F)-c1csc(n1)CC(NC(=O)C(C(C)C)N(C)C(=O)N1CCN(C)CC1)C(=O)N1CCCC(N1)C(=O)OCC(C)(C)C2 [Example 18, N-[(1S)-1-[[(7S,13S)-24-fluoro-(20M)-20-[2-[(1S)-1-methoxyethyl]-5-[4-(2,2,2-trifluoroethyl)piperazin-1-yl]-3-pyridyl]-17,17-dimethyl-8,14-dioxo-21-(2,2,2-trifluoroethyl)-15-oxa-4-thia-9,21,27,28-tetrazapentacyclo[17.5.2.1^2,5.1^9,13.0^22,26]octacosa-1 (25),2,5 (28),19,22 (26),23-hexaen-7-yl]carbamoyl]-2-methyl-propyl]-N,4-dimethyl-piperazine-1-carboxamide] | – | – | – | – | – | – | 23 nM | 12 nM | 7 nM | – | – | –
5 | CO[C@@H](C)c1ncc(N2CCN(C)CC2)cc1-c1c2c3c(F)c(ccc3n1CC(F)(F)F)-c1csc(n1)C[C@H](NC(=O)[C@H](C(C)C)N(C)C(=O)N1CC(N(C)C)C1)C(=O)N1CCC[C@H](N1)C(=O)OCC(C)(C)C2 (atropisomer, axis not shown; (M)) [Example 2, 3-(dimethylamino)-N-[(1S)-1-[[(7S,13S)-25-fluoro-(20M)-20-[2-[(1S)-1-methoxyethyl]-5-(4-methylpiperazin-1-yl)-3-pyridyl]-17,17-dimethyl-8,14-dioxo-21-(2,2,2-trifluoroethyl)-15-oxa-4-thia-9,21,27,28-tetrazapentacyclo[17.5.2.1^2,5.1^9,13.0^22,26]octacosa-1(25),2,5 (28),19,22 (26),23-hexaen-7-yl]carbamoyl]-2-methyl-propyl]-N-methyl-azetidine-1-carboxamide] | 1 nM | 4 nM | 5 nM | 3 nM | 16 nM | 4 nM | – | – | – | – | – | –
6 | CCn1c(-c2cc(N3CCOCC3)cnc2[C@H](C)OC)c2c3cc(c(F)cc31)-c1csc(n1)C[C@H](NC(=O)[C@H](C(C)C)N(C)C(=O)N1CC(F)(F)C1)C(=O)N1CCC[C@H](N1)C(=O)OCC(C)(C)C2 (atropisomer, axis not shown; (M)) [Example 7, N-[(1S)-1-[[(7S,13S)-21-ethyl-24-fluoro-(20M)-20-[2-[(1S)-1-methoxyethyl]-5-morpholino-3-pyridyl]-17,17-dimethyl-8,14-dioxo-15-oxa-4-thia-9,21,27,28-tetrazapentacyclo[17.5.2.1^2,5.1^9,13.0^22,26]octacosa-1 (25),2,5 (28),19,22 (26),23-hexaen-7-yl]carbamoyl]-2-methyl-propyl]-3,3-difluoro-N-methyl-azetidine-1-carboxamide] | – | – | – | – | – | – | – | – | – | 95 nM | 472 nM | 611 nM
7 | COC(C)c1ncc(N2CCN(CC(F)(F)F)CC2)cc1-c1c2c3cc(c(F)cc3n1CC(F)(F)F)-c1csc(n1)CC(NC(=O)C(C(C)C)N(C)C(=O)N1CCN(CC(F)(F)F)CC1)C(=O)N1CCCC(N1)C(=O)OCC(C)(C)C2 [Example 19, N-[(1S)-1-[[(7S,13S)-24-fluoro-(20M)-20-[2-[(1S)-1-methoxyethyl]-5-[4-(2,2,2-trifluoroethyl)piperazin-1-yl]-3-pyridyl]-17,17-dimethyl-8,14-dioxo-21-(2,2,2-trifluoroethyl)-15-oxa-4-thia-9,21,27,28-tetrazapentacyclo[17.5.2.1^2,5.1^9,13.0^22,26]octacosa-1 (25),2,5 (28),19,22 (26),23-hexaen-7-yl]carbamoyl]-2-methyl-propyl]-N-methyl-4-(2,2,2-trifluoroethyl) piperazine-1-carboxamide] | – | – | – | – | – | – | 66 nM | 54 nM | 16 nM | – | – | –
